Source: patent US20240344028A1, “Serum-free media for producing adipocytes for animal consumption” (Mosa Meat B.V., priority 2021, published 2024)

Assays:
[1] = tested on: Adipogenic progenitor cells; assay: 2D adipogenic differentiation with DMAD components removed or at changed concentration; assay type: cell-based, bovine; details: for effect of removing the component from DMAD on percentage of positive cells and total lipid area: single component removed from DMAD
Procedure: (§1) At 90% confluence, proliferated MSCs were trypsinized and seeded in a 96-well collagen coated cell culture plate at 30,000 cells/cm^2 in SF-PM. After 24 hours, adipogenesis was induced by changing SF-PM to DMAD (the serum-free differentiation medium as depicted in Example 1), which was maintained on the cells for a period of 12 days with media changes every 3-4 days. As a control differentiation medium (ctrl), DMEM/F12 with 3% FBS was supplemented with 4 conventional adipogenic inducers (IBMX (Sigma Aldrich-15879; 0.5 mM), dexamethasone (Sigma Aldrich-D4902; 10 μM), rosiglitazone (Sigma Aldrich-R2408; 5 μM) and insulin (Peprotech-10-365; 10 μM)). All 4 inducers were used for the first 3 days of culture and only insulin and rosiglitazone were used for the remaining 9 days.
(§2) Cells were fixed on days 6 and 12 with 4% PFA for 20 minutes at room temperature and washed twice with PBS. Cells were then stained with Hoechst (ThermoFisher 493/503, 1:2000) and BODIPY (Sigma Aldrich 345880, 1:1000) in PBS for 30 minutes. Adipogenic differentiation was quantified using the ImageXPress Pico High Content Analyser (HCA; Molecular devices). The parameters measured were total area of lipid, lipid droplet average area and percentage of positive cells. For the percentage of positive cells, the HCA software assigned BODIPY immunoreactivity to the nearest nuclei, (i.e. a positive cell) and the number of BODIPY positive nuclei was then divided by the total number of nuclei.
Adipogenic progenitor cells were cultured as described in Example 2, with the exception that single components (FGF, EGF, insulin, vitamin C, hydrocortisone, BMP4, lipid concentrate, HEPES, putrescine, progesterone) of the DMAD medium (the serum-free differentiation medium as depicted in Example 1) were removed. In addition, different concentrations (50% and 200%) were tested for EGF, FGF, vitamin C, hydrocortisone and progesterone.

[2] = tested on: MSC cells; assay: PPARγ agonist testing in 2D adipogenic differentiation; assay type: cell-based, bovine; details: 12 days, indomethacin 50 μM, others 10 μM
Procedure: as §1, §2
MSC cells were cultured as described in Example 2. With the exception that indomethacin (50 μM; 17378 from Sigma Aldrich) was replaced with one of the following three PPARΥ agonists to test their efficiency: magnolol (M3445 from Sigma Aldrich) at 10 μM; honokiol (H4914 from Sigma Aldrich) at 10 μM and amorfrutin B (SMB00532 from Sigma Aldrich) at 10 μM.

NCCCCN [putrescine, butane-1,4-diamine]
effect of removing the component from DMAD on percentage of positive cells and total lipid area [1]: did not have significant effects

EGF: recombinant human EGF, AF-100-15 from Peprotech (NSDSECPLSHDGYCLHDGVCMYIEALDKYACNCVVGYIGERCQYRDLKWWELR; Epidermal growth factor; UniProt P01133 971-1023, looked up)
effect on adipogenesis (total lipid area) of decreasing the component's concentration in DMAD ([1]; 50% of the standard concentration vs 100% control): significantly decreased adipogenesis | effect of removing the component from DMAD on percentage of positive cells and total lipid area [1]: significantly decreased differentiation

FGF: recombinant human FGF2, 100-18B from Peprotech
effect of removing the component from DMAD on percentage of positive cells and total lipid area [1]: did not have significant effects

insulin: recombinant human insulin, 10-365 from Peprotech
effect of removing the component from DMAD on percentage of positive cells and total lipid area [1]: significantly decreased differentiation

O=S(=O)(O)CCN1CCN(CCO)CC1 [HEPES, 4-(2-hydroxyethyl)-1-piperazineethanesulfonic acid]
effect of removing the component from DMAD on percentage of positive cells and total lipid area [1]: did not have significant effects

COc1ccc2c(c1)c(CC(=O)O)c(C)n2C(=O)c1ccc(Cl)cc1 [indomethacin]
adipogenic differentiation in DMAD with this PPARγ agonist [2]: able to undergo adipogenic differentiation | level of differentiation, ranking among the PPARγ agonists [2]: highest level of differentiation

C=CCc1ccc(O)c(-c2cc(CC=C)ccc2O)c1 [magnolol]
adipogenic differentiation in DMAD with this PPARγ agonist [2]: able to undergo adipogenic differentiation | level of differentiation, ranking among the PPARγ agonists [2]: highest level of differentiation

COc1cc(CCc2ccccc2)c(C(=O)O)c(O)c1C/C=C(\C)CCC=C(C)C [amorfrutin B]
adipogenic differentiation in DMAD with this PPARγ agonist [2]: able to undergo adipogenic differentiation

C[C@]12CCC(=O)C=C1CC[C@@H]1[C@@H]2[C@@H](O)C[C@@]2(C)[C@H]1CC[C@]2(O)C(=O)CO [hydrocortisone]
effect of removing the component from DMAD on percentage of positive cells and total lipid area [1]: significantly decreased differentiation

CC(=O)[C@H]1CC[C@H]2[C@@H]3CCC4=CC(=O)CC[C@]4(C)[C@H]3CC[C@]12C [progesterone]
effect of removing the component from DMAD on percentage of positive cells and total lipid area [1]: did not have significant effects

C=CCc1ccc(O)c(-c2ccc(O)c(CC=C)c2)c1 [honokiol]
adipogenic differentiation in DMAD with this PPARγ agonist [2]: able to undergo adipogenic differentiation
